Assay results as given in patent US5602101A, “Antithrombotic agents” (priority 1994, dated 1997).

How the values were obtained:
Human Plasma [1] = test: Anticoagulation in human plasma, prothrombin time (PT); type: biochemical; conditions: concentration required to double the PT
Method: (§1) Dog plasma and rat plasma are obtained from conscious mixed-breed hounds (either sex, Hazelton-LRE, Kalamazoo, Mich., U.S.A.) or from anesthetized male Sprague-Dawley rats (Harlan Sprague-Dawley, Inc., Indianapolis, Ind., U.S.A.) by venipuncture into 3.8 percent citrate. Fibrinogen is prepared from in-date ACD human blood as the fraction I-2 according to previous procedures and specifications. Smith, Biochem. Chem. […] Human fibrinogen is also purchased as 98 percent pure/plasmin free from American Diagnostics, Greenwich, Conn. Coagulation reagents ACTIN, Thromboplastin, and Human plasma are from Baxter Healthcare Corp., Dade Division, Miami, Fla. Bovine thrombin from Parke-Davis (Ann Arbor, Mich.) is used for coagulation assays in plasma. Coagulation assay procedures are as previously described. Smith, et al., Thrombosis Research, 5, 163-174 (1988). A CoAScreener coagulation instrument (American LABor, Inc.) is used for all coagulation assay measurements. The prothrombin time (PT) is measured by adding 0.05 ml saline and 0.05 ml Thromboplastin-C reagent to 0.05 ml test plasma. The activated partial thromboplastin time (APTT) is measured by incubation of 0.05 ml test plasma with 0.05 ml Actin reagent for 120 seconds followed by 0.05 ml CaCl2 (0.02M). […] The compounds of formula I are added to human or animal plasma over a wide range of concentrations to determine prolongation effects on the APTT, PT, and TT assays. Linear extrapolations are performed to estimate the concentrations required to double the clotting time for each assay.

human thrombin = biological target: T1, human thrombin (Homo sapiens, UniProt P00734); test: Inhibition of amidase activity of thrombin (chromogenic substrate), Kass; type: biochemical; conditions: substrate N-benzoyl-Phe-Val-Arg-p-nitroanilide, pH 7.4
T1 construct: purified human thrombin Enzyme Research Laboratories, South Bend, Ind; purchased Enzyme Research Laboratories, South Bend, Ind
Method: (§2) The assay is carried out by mixing 50 μl buffer (0.03M Tris, 0.15M NaCl, pH 7.4), 25 μl of human thrombin solution (purified human thrombin Enzyme Research Laboratories, South Bend, Ind.) at 8 NIH units/ml and 25 μl of test compound in a solvent (50% aqueous methanol (v:v)). Then 150 μl of an aqueous solution of the chromogenic substrate (at 0.25 mg/ml) are added and the rates of hydrolysis of the substrate are measured by monitoring the reactions at 405 nm for the release of p-nitroaniline. Standard curves are constructed by plotting free thrombin concentration against hydrolysis rate. The hydrolysis rates observed with test compounds are then converted to "free thrombin" values in the respective assays by use of the standard curves. The bound thrombin (bound to test compound) is calculated by subtracting the amount of free thrombin observed in each assay from the known initial amount of thrombin used in the assay. The amount of free inhibitor in each assay is calculated by subtracting the number of moles of bound thrombin from the number of moles of added inhibitor (test compound).
The Kass value is the hypothetical equilibrium constant for the reaction between thrombin and the test compound (I). [drawing 53]
(§3) Kass is calculated for a range of concentrations of test compounds and the mean value is reported in units of liter per mole.

[2] = biological target: T2, tissue plasminogen activator (t-PA) (Homo sapiens, UniProt P00750); test: Serine protease inhibition, t-PA (chromogenic substrate), Kass; type: biochemical; conditions: substrate H-D-Ile-Pro-Arg-p-nitroanilide
T2 construct: purchased American Diagnostics, Greenwich, Conn
Method: as §2, §3
(§4) By substantially following the procedures described above for human thrombin, and using other human blood coagulation system serine proteases, and using fibrinolytic system serine proteases, with the appropriate chromogenic substrate, identified below, selectivity of the compounds of the present invention with respect to the coagulation factor serine proteases and to the fibrinolytic serine proteases are evaluated as well as their substantial lack of interference with human plasma clot fibrinolysis.
(§5) Human factors X, Xa, IXa, XIa, and xIIa are purchased from Enzyme Research Laboratories, South Bend, Ind.; human urokinase from Leo Pharmaceuticals, Denmark; and recombinant activated Protein C (aPC) is prepared at Eli Lilly and Co. substantially according to U.S. Pat. No. 4,981,952 incorporated by reference herein in its entirety. Chromogenic substrates: N-Benzoyl-Ile-Glu-Gly-Arg-p-nitroanilide (for factor Xa); N-Cbz-D-Arg-Gly-Arg-p-nitroanilide (for factor IXa assay as the factor Xa substrate) pyroglutamyl-Pro-Arg-p-nitroanilide (for factor XIa and for aPC); H-D-Pro-Phe-Arg-p-nitroanilide (for factor XIIa); and pyroglutamyl-Gly-Arg-p-nitroanilide (for urokinase); are purchased from KabiVitrum, Stockholm, Sweden, or from Midwest Biotech, Fishers, Indiana. Bovine trypsin is purchased from Worthington Biochemicals, Freehold, N.J., and human plasma kallikrein from Kabi Vitrum, Stockholm, Sweden. N-Benzoyl-Phe-Val-Arg-p-nitroanilide, the substrate for human thrombin and for trypsin, is synthesized according to procedures described above for the compounds of the present invention, known methods of peptide coupling from commercially available reactants, or was purchased from Midwest Biotech, Fishers, Ind. Human plasmin is purchased from Boehringer Mannheim, Indianapolis, Ind.; nt-PA is purchased as single chain activity reference from American Diagnostics, Greenwich, Conn.; modified-t-PA6 (mt-PA6) is prepared at Eli Lilly and Company by procedure known in the art (See, Burck, et al., J. Biol. Chem., 265, […] (1990). Plasmin chromogenic substrate H-D-Val-Leu-Lys-p-nitroanilide and tissue plasminegen activator (t-PA) substrate H-D-Ile-Pro-Arg-p-nitroanilide are purchased from Kabi Vitrum, Stockholm, Sweden.

factor Xa = biological target: T3, factor Xa (Homo sapiens, UniProt P00742); test: Serine protease inhibition, factor Xa (chromogenic substrate), Kass; type: biochemical; conditions: substrate N-Benzoyl-Ile-Glu-Gly-Arg-p-nitroanilide
T3 construct: Human factors X, Xa, IXa, XIa, and xIIa are purchased from Enzyme Research Laboratories; purchased Enzyme Research Laboratories, South Bend, Ind
Method: as §2, §3, §4, §5

Bovine trypsin = biological target: T4, Bovine trypsin (Bos taurus, UniProt P00760); test: Serine protease inhibition, trypsin (chromogenic substrate), Kass; type: biochemical; conditions: substrate N-Benzoyl-Phe-Val-Arg-p-nitroanilide
T4 construct: Bovine trypsin is purchased from Worthington Biochemicals, Freehold, N.J; purchased Worthington Biochemicals, Freehold, N.J
T4 sequence (P00760 24-246): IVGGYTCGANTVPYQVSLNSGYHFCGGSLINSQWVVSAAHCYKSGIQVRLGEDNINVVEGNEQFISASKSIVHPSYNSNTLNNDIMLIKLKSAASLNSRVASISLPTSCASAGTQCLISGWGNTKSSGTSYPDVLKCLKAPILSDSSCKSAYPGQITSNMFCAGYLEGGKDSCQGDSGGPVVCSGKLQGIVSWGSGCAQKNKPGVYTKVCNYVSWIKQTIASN
Method: as §2, §3, §4, §5

Human plasmin = biological target: T5, Human plasmin (Homo sapiens, UniProt P00747); test: Serine protease inhibition, plasmin (chromogenic substrate), Kass; type: biochemical; conditions: substrate H-D-Val-Leu-Lys-p-nitroanilide
T5 construct: Human plasmin is purchased from Boehringer Mannheim, Indianapolis, Ind; purchased Boehringer Mannheim, Indianapolis, Ind
Method: as §2, §3, §4, §5

Human Plasma [3] = test: Anticoagulation in human plasma, activated partial thromboplastin time (APTT); type: biochemical; conditions: concentration required to double the APTT
Method: as §1

Human Plasma [4] = test: Anticoagulation in human plasma, thrombin time (TT); type: biochemical; conditions: concentration required to double the thrombin time
Method: as §1

[5] = Index of bioavailability (plasma TT AUC, p.o. vs i.v.); conditions: rats, adjusted for dose

T3 sequence (P00742 235-488 limits assumed): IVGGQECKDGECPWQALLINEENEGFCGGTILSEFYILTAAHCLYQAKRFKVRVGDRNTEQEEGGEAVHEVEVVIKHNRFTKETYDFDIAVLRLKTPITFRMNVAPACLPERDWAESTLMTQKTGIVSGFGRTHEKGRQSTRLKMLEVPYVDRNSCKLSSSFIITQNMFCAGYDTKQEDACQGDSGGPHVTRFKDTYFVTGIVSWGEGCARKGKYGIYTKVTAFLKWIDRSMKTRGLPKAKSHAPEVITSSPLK
T3 sequence (P00742 41-179 partner limits assumed): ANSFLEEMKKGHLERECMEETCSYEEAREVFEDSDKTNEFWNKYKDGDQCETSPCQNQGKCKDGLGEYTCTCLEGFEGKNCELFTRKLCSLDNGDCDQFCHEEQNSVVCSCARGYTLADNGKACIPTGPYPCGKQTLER
T2 sequence (P00750 36-562): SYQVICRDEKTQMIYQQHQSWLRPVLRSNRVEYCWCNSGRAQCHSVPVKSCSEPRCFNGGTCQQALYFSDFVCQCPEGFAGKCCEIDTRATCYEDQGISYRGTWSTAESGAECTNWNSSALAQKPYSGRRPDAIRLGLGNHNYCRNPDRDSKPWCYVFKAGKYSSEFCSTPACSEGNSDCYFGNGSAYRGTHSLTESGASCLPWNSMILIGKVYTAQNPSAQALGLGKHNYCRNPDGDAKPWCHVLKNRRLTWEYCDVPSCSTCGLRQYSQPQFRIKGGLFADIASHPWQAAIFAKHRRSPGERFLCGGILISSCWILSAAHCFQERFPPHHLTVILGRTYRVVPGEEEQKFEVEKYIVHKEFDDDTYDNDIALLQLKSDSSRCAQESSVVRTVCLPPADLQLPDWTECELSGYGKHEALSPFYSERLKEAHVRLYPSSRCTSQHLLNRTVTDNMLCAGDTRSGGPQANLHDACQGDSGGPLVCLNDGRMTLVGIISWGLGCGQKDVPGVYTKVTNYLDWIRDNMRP
T5 sequence (P00747 581-810 limits assumed): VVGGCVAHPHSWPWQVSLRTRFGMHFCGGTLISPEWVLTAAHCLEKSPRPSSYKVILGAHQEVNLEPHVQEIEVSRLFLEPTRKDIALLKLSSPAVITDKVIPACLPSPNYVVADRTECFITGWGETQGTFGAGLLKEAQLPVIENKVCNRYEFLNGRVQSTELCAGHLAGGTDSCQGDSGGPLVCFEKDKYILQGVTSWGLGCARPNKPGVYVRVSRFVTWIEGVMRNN
T5 sequence (P00747 97-580 partner limits assumed): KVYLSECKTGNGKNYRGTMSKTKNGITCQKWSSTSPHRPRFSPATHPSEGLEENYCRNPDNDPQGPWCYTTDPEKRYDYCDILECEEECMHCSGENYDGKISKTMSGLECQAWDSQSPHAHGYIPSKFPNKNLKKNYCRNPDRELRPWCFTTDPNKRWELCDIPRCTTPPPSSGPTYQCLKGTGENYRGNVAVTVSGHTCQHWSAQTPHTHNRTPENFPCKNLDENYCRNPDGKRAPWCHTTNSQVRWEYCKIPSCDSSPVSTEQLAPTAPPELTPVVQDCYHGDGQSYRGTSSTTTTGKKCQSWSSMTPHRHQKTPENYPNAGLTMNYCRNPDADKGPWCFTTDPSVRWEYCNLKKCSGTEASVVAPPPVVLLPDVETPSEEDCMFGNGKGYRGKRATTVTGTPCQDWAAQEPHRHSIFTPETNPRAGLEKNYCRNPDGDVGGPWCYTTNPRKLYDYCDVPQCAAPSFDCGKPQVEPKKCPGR

Row | SMILES | 2 × Clotting time, PT (Human Plasma [1]) | Enzyme Kass, Human Thrombin (human thrombin) [L/mol × 10^6] | Enzyme Kass, t-Pa [2] [L/mol × 10^6] | Enzyme Kass, Xa (factor Xa) [L/mol × 10^6] | Enzyme Kass, Trypsin (Bovine trypsin) [L/mol × 10^6] | Enzyme Kass, Plasmin (Human plasmin) [L/mol × 10^6] | 2 × Clotting time, APTT (Human Plasma [3]) | 2 × Clotting time, TT (Human Plasma [4]) [ng/mL] | Index of Bioavailability, % Relative Activity [5] [%]
1 | Cl.Cn1c(C(=O)NC(Cc2ccccc2)C(=O)N2CCCC2C(=O)NC(C=O)CCCN=C(N)N)cc2ccccc21 [Example 1, NMI-D-Phe-Pro-Arg-H.HCl] | 870 ng/mL | 850 | 31 | 0.51 | 120 | 7.9 | 440 ng/mL | 43 | 2
2 | Cl.NC(N)=NCCCC(C=O)NC(=O)C1CCCN1C(=O)C(Cc1ccccc1)NC(=O)c1ccc2ccccc2n1 (centres unmarked) [Example 2] | 1,400 ng/ML | 110 | 0.32 | 0.16 | 22 | 0.55 | 1,100 ng/ML | 35 | 1
3 | Cl.N=C(N)NCCC[C@@H](C=O)NC(=O)[C@@H]1CCCN1C(=O)[C@@H](Cc1ccccc1)NC(=O)c1cccnc1 [Example 3, N-Nicotinoyl-D-Phe-Pro-Arg-H.HCl] | 1,700 ng/ML | 58 | 0.17 | 0.080 | 12 | 0.41 | 1,300 ng/ML | 47 | 3
4 | COCC(=O)N[C@H](Cc1ccccc1)C(=O)N1CCC[C@H]1C(=O)N[C@H](C=O)CCCNC(=N)N.Cl [Example 24, CH3 OCH2 CO-D-Phe-Pro-Arg-H.HCl] | 1,200 ng/ML | 33 | 0.30 | 0.29 | 57 | 3.8 | 440 ng/mL | 38 | –
5 | Cl.N=C(N)NCCC[C@@H](C=O)NC(=O)[C@@H]1CCCN1C(=O)[C@@H](Cc1ccccc1)NC(=O)C(F)(F)F [Example 25, CF3 CO-D-Phe-Pro-Arg-H.HCl] | 1,800 ng/ML | 26 | 0.17 | 0.033 | 15 | 0.31 | 1,300 ng/ML | 59 | –
6 | Cl.N=C(N)NCCC[C@@H](C=O)NC(=O)[C@@H]1CCCN1C(=O)[C@@H](Cc1ccccc1)NC(=O)Cc1ccccc1 [Example 26, PhCH2 CO-D-Phe-Pro-Arg-H.HCl] | 2,000 ng/ML | 29 | 0.37 | 0.10 | 14 | 0.54 | 1,100 ng/ML | 64 | –
7 | Cl.N=C(N)NCCC[C@@H](C=O)NC(=O)[C@@H]1CCCN1C(=O)[C@@H](Cc1ccccc1)NC(=O)C1CCCCC1 [Example 27, cyclohexyl-CO-D-Phe-Pro-Arg-H.HCl] | 1,800 ng/ML | 20 | 0.26 | 0.064 | 5.9 | 0.24 | 1,300 ng/ML | 63 | –
8 | CCCN(CCC)S(=O)(=O)c1ccc(C(=O)N[C@H](Cc2ccccc2)C(=O)N2CCC[C@H]2C(=O)N[C@H](C=O)CCCNC(=N)N)cc1.Cl [Example 29, 4-(n-Pr2 NSO2)-C6 H4 CO-D-Phe-Pro-Arg-H.HCl] | 4,800 ng/ML | 43 | 0.62 | 0.32 | 15 | 0.86 | 3,500 ng/ML | 150 | –
9 | CCNC(=O)N[C@H](Cc1ccccc1)C(=O)N1CCC[C@H]1C(=O)N[C@H](C=O)CCCN=C(N)N.Cl [Example 32, EtNHCO-D-Phe-Pro-Arg-H.HCl] | 1,700 ng/ML | 25 | 0.54 | 0.21 | 60 | 2.0 | 1,100 ng/ML | 63 | –
10 | CCOC(=O)N[C@H](CC1CCCCC1)C(=O)N1CCC[C@H]1C(=O)N[C@H](C=O)CCCN=C(N)N.Cl [Example 34, EtOCO-D-Cha-Pro-Arg-H.HCl] | 890 ng/mL | 360 | 0.75 | 8.1 | 140 | 26 | 410 ng/mL | 48 | –
